The numbers were not newly measured in patent publication US20210077540A1, “BIOACTIVE GREEN-LIPPED MUSSEL EXTRACTS AND USES THEREOF” (SANFORD LIMITED, priority 2018, published 2021), which cites them from elsewhere.

The structures appear in SMILES notation.

The conditions of data set [1]: oral supplementation, meta-analysis of randomized, double-blind, placebo-controlled trials.
For data set [2] the following is noted: supplementation, women with gestational hypertension incl. pre-eclampsia.

Consider `N=C(N)NCCC[C@H](N)C(=O)O` [L-arginine], for which, in data set [1], the “reduction of diastolic blood pressure, pooled estimate” value was 2.7 mmHg and the “reduction of systolic blood pressure, pooled estimate” value is reported as 5.4 mmHg. In addition, in data set [2], the “effect on diastolic blood pressure (in words)” value was “reduces diastolic blood pressure” and the “effect on length of pregnancy (in words)” value is “lengthens pregnancy”.
